According to patent US8519007B2, “Use certain diterpene compounds in the treatment of androgen receptor-associated diseases” (Academia Sinica, priority 2008, dated 2013):

Key:
[1] = tested on: LNCaP cells; assay: Cell cycle distribution by propidium iodide flow cytometry; type: cell-based, human; conditions: 48 h
Description: (§3) The cell cycle of treated cells was examined by flow cytometry after cellular staining with propidium iodide. 5×10^5 cells were seeded into 6-well multidishes with 10% FBS culture medium for 48 h. […] Cells were trypsinized thereafter, washed twice with cold PBS, and centrifuged. The pellet was suspended in cold PBS and 1 mL of 70% ethanol at 4° C. overnight, washed twice with cold PBS, and digested with RNase (100 μg/mL final concentration) and stained with propidium iodide (10 μg/mL final concentration) for 30 min and analyzed by flow cytometry (EPICS XL-MCL, Beckman Coulter, Inc., Fullerton, Calif.).

[2] = tested on: LNCaP cells; assay: Apoptosis by nucleosome release (cytoplasmic DNA fragmentation); type: cell-based, human; conditions: 5-10 μM, 24 h
Description: (§1) FIGS. 4A-B. HDHS induces apoptosis in AR-dependent PCa cells. A, Apoptosis of cytoplasmic DNA fragmentation in different cell lines treated with vehicle or indicated concentrations of HDHS for 24 h. Difference between the indicated pair of treatments was tested for statistic significance as marked. *, P≦0.05; **, P≦0.01. B, Activation of caspases and PARP in HDHS-induced apoptosis of LNCaP cells.
(§2) In light of the increase of sub-G1 populations by HDHS, apoptosis in treated cells was further analyzed via measurement of nucleosome release in PCa cells. […] 22Rv1 cells with AR expression are ablation-resistant but respond to androgen stimulation; HDHS led to their apoptosis.

[3] = tested on: PC-3 cells; assay: as above; type: cell-based, human; conditions: PC-3, 5-10 μM, 24 h
Description: as §1, §2

[4] = tested on: 22Rv1 cells; assay: Cell cycle distribution by propidium iodide flow cytometry; type: cell-based, human; conditions: 48 h
Description: as §3

[5] = tested on: NIH-3T3 cells; assay: MTT cell viability; type: cell-based; conditions: NIH-3T3, concentrations above 10 μM, 48 h, versus LNCaP and 22Rv1
Description: The effects of HDHS on cell viability in various PCa cell lines including androgen-dependent LNCaP, androgen-responsive 22Rv1 cells, and androgen-independent PC-3 cells were tested and compared with untransformed fibroblast NIH-3T3 cells. PCa or NIH-3T3 cells (1×10^4 cells) were seeded into 96-well microtiter plates with 10% FBS culture medium. After 24 h, cells were incubated in 10% FBS medium containing different concentrations of HDHS or equivalent amounts of vehicle alone as control for 48 h. Cell viability was then determined by MTT assay, which quantitatively measures the metabolic activity of living cells.

[6] = tested on: PSA and AR expression in LNCaP cells; assay: Western blot of PSA and AR expression in DHT-treated LNCaP cells; type: cell-based, human; conditions: 10 nM DHT, 24 h
Description: The AR suppressing activity of HDHS was also examined in LNCaP cells, another androgen-dependent PCa cell line. […] Expression of endogenous PSA in treated cells, as a measure of cellular response to androgen, and AR activity were detected by western blot with anti-PSA and anti-AR antibodies. Protein levels (relative to actin; listed below the first two blots) were quantitatively analyzed with Chemigenius (Biolabo). The blots shown in FIG. 2B are representative of three independent experiments.

[7] = biological target: T1, AR (Homo sapiens, UniProt P10275, T878A); assay: AR nuclear translocation by confocal immunofluorescence in LNCaP cells; type: cell-based; conditions: steroid-deprived, 5 to 10 μM, 1 h
T1 construct: endogenous in cells; host or cells: LNCaP
T1 sequence (P10275 1-920 T878A): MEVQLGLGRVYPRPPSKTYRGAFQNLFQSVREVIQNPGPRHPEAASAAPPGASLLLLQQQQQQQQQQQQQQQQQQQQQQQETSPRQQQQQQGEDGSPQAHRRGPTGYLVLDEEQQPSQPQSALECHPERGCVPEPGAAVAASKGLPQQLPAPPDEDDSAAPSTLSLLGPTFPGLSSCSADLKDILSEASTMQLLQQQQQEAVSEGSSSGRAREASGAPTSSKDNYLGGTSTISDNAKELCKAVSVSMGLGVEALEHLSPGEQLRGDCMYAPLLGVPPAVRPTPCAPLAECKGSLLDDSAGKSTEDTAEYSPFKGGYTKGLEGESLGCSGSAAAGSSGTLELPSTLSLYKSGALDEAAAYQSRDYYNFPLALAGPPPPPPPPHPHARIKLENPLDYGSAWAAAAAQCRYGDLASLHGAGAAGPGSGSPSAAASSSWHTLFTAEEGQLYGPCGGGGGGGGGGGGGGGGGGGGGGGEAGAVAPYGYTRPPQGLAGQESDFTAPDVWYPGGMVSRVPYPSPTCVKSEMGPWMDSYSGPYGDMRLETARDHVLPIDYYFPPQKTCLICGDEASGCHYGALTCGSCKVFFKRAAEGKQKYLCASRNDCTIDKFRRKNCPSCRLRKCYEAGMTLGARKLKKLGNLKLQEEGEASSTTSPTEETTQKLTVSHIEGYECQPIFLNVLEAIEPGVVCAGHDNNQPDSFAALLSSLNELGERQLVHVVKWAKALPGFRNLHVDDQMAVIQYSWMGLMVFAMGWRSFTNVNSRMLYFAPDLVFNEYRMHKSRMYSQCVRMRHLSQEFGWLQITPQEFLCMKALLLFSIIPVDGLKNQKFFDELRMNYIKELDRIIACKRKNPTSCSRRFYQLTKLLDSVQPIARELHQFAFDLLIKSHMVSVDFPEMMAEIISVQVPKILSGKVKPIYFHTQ
Description: Specifically, LNCaP cells were grown in medium containing 5% charcoal-dextran stripped FBS on 12-mm coverslips for 48 h and then treated with vehicle or various compound treatments for another 1 h. Cells were fixed with 4% (v/v) paraformaldehyde on ice for 15 min, permeabilized with 0.2% (v/v) Triton X-100/PBS, and then washed with PBS three times. […] The samples were washed again and mounted in mounting medium (Vector, Burlingame, Calif.). The cellular location of AR was visualized by confocal microscopy (LSM 510 META, Carl Zeiss GmbH, Jena, Germany) and analyzed using the manufacturer's software.

[8] = tested on: LNCaP cells; assay: Morphology of treated cells; conditions: 10 to 50 μM, 48 h
Description: The long-term effect of HDHS on the malignant growth of AR-dependent (22Rv1, and LNCaP) and AR-independent (PC-3) PCa cells was examined by colony-forming growth assay.

Structure (SMILES): CC(C)c1cc2c(cc1O)[C@@]1(C)CCCC(C)(C)C1=C(O)C2=O [Compound 2, 6,12-dihydroxyabieta-5,8,11,13-tetraen-7-one]
- G0-G1 phase cell population ([1]; 2.5 μM): 62.6 ± 2.8 %
- G2-M phase cell population ([1]; 2.5 μM): 21.1 ± 2.4 %
- S phase cell population ([1]; 2.5 μM): 11.5 ± 2.1 %
- Sub-G1 phase cell population ([1]; 2.5 μM): 0.8 ± 0.4 %
- G0-G1 phase cell population ([1]; 5 μM): 66.9 ± 2.0 %
- G2-M phase cell population ([1]; 5 μM): 18.7 ± 3.5 %
- S phase cell population ([1]; 5 μM): 8.1 ± 1.8 %
- Sub-G1 phase cell population ([1]; 5 μM): 3.9 ± 0.7 %
- G0-G1 phase cell population ([1]; 10 μM): 45.1 ± 3.1 %
- G2-M phase cell population ([1]; 10 μM): 20.2 ± 2.1 %
- S phase cell population ([1]; 10 μM): 6.8 ± 2.4 %
- Sub-G1 phase cell population ([1]; 10 μM): 24.3 ± 3.1 %
- apoptosis (nucleosome release) [2]: significantly induced
- apoptosis (nucleosome release) [3]: not in PC-3 cells
- G0-G1 phase cell population ([4]; 22Rv1, 2.5 μM): 54.5 ± 2.5 %
- G2-M phase cell population ([4]; 22Rv1, 2.5 μM): 24.8 ± 2.4 %
- S phase cell population ([4]; 22Rv1, 2.5 μM): 11.2 ± 1.9 %
- Sub-G1 phase cell population ([4]; 22Rv1, 2.5 μM): 2.2 ± 0.8 %
- G0-G1 phase cell population ([4]; 22Rv1, 5 μM): 57.9 ± 1.9 %
- G2-M phase cell population ([4]; 22Rv1, 5 μM): 23.7 ± 2.7 %
- S phase cell population ([4]; 22Rv1, 5 μM): 8.0 ± 1.4 %
- Sub-G1 phase cell population ([4]; 22Rv1, 5 μM): 3.8 ± 0.9 %
- G0-G1 phase cell population ([4]; 22Rv1, 10 μM): 48.4 ± 2.9 %
- G2-M phase cell population ([4]; 22Rv1, 10 μM): 24.5 ± 2.0 %
- S phase cell population ([4]; 22Rv1, 10 μM): 5.7 ± 2.2 %
- Sub-G1 phase cell population ([4]; 22Rv1, 10 μM): 14.4 ± 3.7 %
- cell viability (MTT) [5]: far less pronounced
- AR activation of PSA expression by DHT ([6]; 10 μM): completely abolished
- protein levels of AR ([6]; 10 μM): fell to basal level
- protein levels of AR ([6]; 2.5 or 5 μM): not significantly altered
- AR nuclear localization [7]: significant AR accumulation in the nucleus
- morphology of treated cells [8]: cell rounding and surface blebbing
